According to patent US11427549B2, “Pyrimidinyloxy benzo-fused compounds as herbicides” (FMC Corporation, priority 2017, dated 2022):

Columns and labels:
[1] = test system: barnyardgrass (Echinochloa crus-galli); experiment: Test A preemergence, barnyardgrass; format: in vivo; details: Echinochloa crus-galli, pre-emergence, 240 h, 0 to 100 scale (0 no effect, 100 complete control), read-out: Plant response rating, Barnyardgrass; for pest or weed control at 31 g/ha: 31 g ai/ha; for pest or weed control at 125 g/ha: 125 g ai/ha
kochia (Kochia scoparia) [2] = experiment: Test A preemergence, kochia; format: in vivo; details: Bassia scoparia, pre-emergence, 240 h, 0 to 100 scale (0 no effect, 100 complete control), read-out: Plant response rating, Kochia; for pest or weed control at 31 g/ha: 31 g ai/ha; for pest or weed control at 125 g/ha: 125 g ai/ha
[3] = test system: ragweed (common ragweed, Ambrosia elatior); experiment: Test A preemergence, ragweed; format: in vivo; details: Ambrosia artemisiifolia, pre-emergence, 240 h, 0 to 100 scale (0 no effect, 100 complete control), read-out: Plant response rating, Ragweed; for pest or weed control at 31 g/ha: 31 g ai/ha; for pest or weed control at 125 g/ha: 125 g ai/ha
[4] = test system: ryegrass, Italian (Italian ryegrass, Lolium multiflorum); experiment: Test A preemergence, ryegrass, Italian; format: in vivo; details: Lolium multiflorum, pre-emergence, 240 h, 0 to 100 scale (0 no effect, 100 complete control), read-out: Plant response rating, Ryegrass, Italian; for pest or weed control at 31 g/ha: 31 g ai/ha; for pest or weed control at 125 g/ha: 125 g ai/ha
[5] = test system: pigweed (Amaranthus retroflexus); experiment: Test A preemergence, pigweed; format: in vivo; details: Amaranthus retroflexus, pre-emergence, 240 h, 0 to 100 scale (0 no effect, 100 complete control), read-out: Plant response rating, Pigweed; for pest or weed control at 31 g/ha: 31 g ai/ha; for pest or weed control at 125 g/ha: 125 g ai/ha
[6] = test system: barnyardgrass (Echinochloa crus-galli); experiment: Test A postemergence, barnyardgrass; format: in vivo; details: Echinochloa crus-galli, post-emergence, 240 h, 0 to 100 scale (0 no effect, 100 complete control), read-out: Plant response rating, Barnyardgrass; for pest or weed control at 31 g/ha: 31 g ai/ha; for pest or weed control at 125 g/ha: 125 g ai/ha
kochia (Kochia scoparia) [7] = experiment: Test A postemergence, kochia; format: in vivo; details: Bassia scoparia, post-emergence, 240 h, 0 to 100 scale (0 no effect, 100 complete control), read-out: Plant response rating, Kochia; for pest or weed control at 31 g/ha: 31 g ai/ha; for pest or weed control at 125 g/ha: 125 g ai/ha
[8] = test system: ragweed (common ragweed, Ambrosia elatior); experiment: Test A postemergence, ragweed; format: in vivo; details: Ambrosia artemisiifolia, post-emergence, 240 h, 0 to 100 scale (0 no effect, 100 complete control), read-out: Plant response rating, Ragweed; for pest or weed control at 31 g/ha: 31 g ai/ha; for pest or weed control at 125 g/ha: 125 g ai/ha
[9] = test system: ryegrass, Italian (Italian ryegrass, Lolium multiflorum); experiment: Test A postemergence, ryegrass, Italian; format: in vivo; details: Lolium multiflorum, post-emergence, 240 h, 0 to 100 scale (0 no effect, 100 complete control), read-out: Plant response rating, Ryegrass, Italian; for pest or weed control at 31 g/ha: 31 g ai/ha; for pest or weed control at 125 g/ha: 125 g ai/ha
[10] = test system: foxtail, green (green foxtail, Setaria viridis); experiment: Test A postemergence, foxtail, green; format: in vivo; details: Setaria, post-emergence, 240 h, 0 to 100 scale (0 no effect, 100 complete control), read-out: Plant response rating, Foxtail, Green; for pest or weed control at 31 g/ha: 31 g ai/ha; for pest or weed control at 125 g/ha: 125 g ai/ha
[11] = test system: pigweed (Amaranthus retroflexus); experiment: Test A postemergence, pigweed; format: in vivo; details: Amaranthus retroflexus, post-emergence, 240 h, 0 to 100 scale (0 no effect, 100 complete control), read-out: Plant response rating, Pigweed; for pest or weed control at 31 g/ha: 31 g ai/ha; for pest or weed control at 125 g/ha: 125 g ai/ha
[12] = test system: wheat (Triticum aestivum); experiment: Test A postemergence, wheat; format: in vivo; details: Triticum aestivum, post-emergence, 240 h, 0 to 100 scale (0 no effect, 100 complete control), read-out: Plant response rating, Wheat; for plant injury at 31 g/ha: 31 g ai/ha; for plant injury at 125 g/ha: 125 g ai/ha
corn (Zea mays) = experiment: Test A postemergence, corn; format: in vivo; details: Zea mays, post-emergence, 240 h, 0 to 100 scale (0 no effect, 100 complete control); for Corn plant response rating (crop injury, 0 = no effect, 100 = complete kill) at 31 g/ha: 31 g ai/ha; for Corn plant response rating (crop injury, 0 = no effect, 100 = complete kill) at 125 g/ha: 125 g ai/ha
[13] = test system: blackgrass (Alopecurus myosuroides); experiment: Test A postemergence, blackgrass; format: in vivo; details: Alopecurus myosuroides, post-emergence, 240 h, 0 to 100 scale (0 no effect, 100 complete control), read-out: Plant response rating, Blackgrass; for pest or weed control at 31 g/ha: 31 g ai/ha; for pest or weed control at 125 g/ha: 125 g ai/ha
[14] = test system: galium (catchweed bedstraw, Galium aparine); experiment: Test A postemergence, galium; format: in vivo; details: Galium, post-emergence, 240 h, 0 to 100 scale (0 no effect, 100 complete control), read-out: Plant response rating, Galium; for pest or weed control at 31 g/ha: 31 g ai/ha; for pest or weed control at 125 g/ha: 125 g ai/ha
rice (Oryza sativa) = experiment: Test B flooded paddy test, rice; details: Oryza sativa, read-out: Plant response rating, Rice (0 to 100 scale, 0 is no effect, 100 is complete control)
[15] = test system: ducksalad (Heteranthera limosa); experiment: Test B flooded paddy test, ducksalad; details: Heteranthera limosa, read-out: Plant response rating, Ducksalad (0 to 100 scale, 0 is no effect, 100 is complete control)
[16] = test system: barnyardgrass (Echinochloa crus-galli); experiment: Test B flooded paddy test, barnyardgrass; details: Echinochloa crus-galli, read-out: Plant response rating, Barnyardgrass (0 to 100 scale, 0 is no effect, 100 is complete control)

| SMILES | pest or weed control at 31 g/ha [1] | pest or weed control at 125 g/ha [1] | pest or weed control at 31 g/ha (kochia (Kochia scoparia) [2]) | pest or weed control at 125 g/ha (kochia (Kochia scoparia) [2]) | pest or weed control at 31 g/ha [3] | pest or weed control at 125 g/ha [3] | pest or weed control at 31 g/ha [4] | pest or weed control at 125 g/ha [4] | pest or weed control at 31 g/ha [5] | pest or weed control at 125 g/ha [5] | pest or weed control at 31 g/ha [6] | pest or weed control at 125 g/ha [6] | pest or weed control at 31 g/ha (kochia (Kochia scoparia) [7]) | pest or weed control at 125 g/ha (kochia (Kochia scoparia) [7]) | pest or weed control at 31 g/ha [8] | pest or weed control at 125 g/ha [8] | pest or weed control at 31 g/ha [9] | pest or weed control at 125 g/ha [9] | pest or weed control at 31 g/ha [10] | pest or weed control at 125 g/ha [10] | other results |
| --- | --- | --- | --- | --- | --- | --- | --- | --- | --- | --- | --- | --- | --- | --- | --- | --- | --- | --- | --- | --- | --- |
| O=C1OC(CCC(F)(F)F)c2c(Oc3ncc(Cl)cn3)cccc21 (stereo not drawn) [Compound 4, 4-[(5-Chloro-2-pyrimidinyl)oxy]-3-(3,3,3-trifluoropropyl)-1(3H)-isobenzofuranone] | 70% | 100% | 90% | 100% | 20% | 70% | 20% | 100% | 100% | 100% | 30% | 90% | 90% | 100% | 0% | 80% | 20% | 90% | 30% | 90% | pest or weed control at 31 g/ha [11]: 90%; pest or weed control at 125 g/ha [11]: 100%; plant injury at 31 g/ha [12]: 20%; plant injury at 125 g/ha [12]: 80%; Corn plant response rating (crop injury, 0 = no effect, 100 = complete kill) at 31 g/ha (corn (Zea mays)): 30%; Corn plant response rating (crop injury, 0 = no effect, 100 = complete kill) at 125 g/ha (corn (Zea mays)): 80%; pest or weed control at 31 g/ha [13]: 40%; pest or weed control at 125 g/ha [13]: 90%; pest or weed control at 31 g/ha [14]: 100%; pest or weed control at 125 g/ha [14]: 100%; plant injury at 250 g/ha (rice (Oryza sativa)): 45%; pest or weed control at 250 g/ha [15]: 100%; pest or weed control at 250 g/ha [16]: 35% |
| O=C1COC(CCCC(F)(F)F)c2c(Oc3ncc(Cl)cn3)cccc21 (stereo not drawn) [Compound 5, 8-[(5-Chloro-2-pyrimidinyl)oxy]-1-(4,4,4-trifluorobutyl)-1H-2-benzopyran-4(3H)-one] | 0% | 0% | 0% | 0% | 0% | 0% | 0% | 0% | 0% | 90% | 0% | 10% | 0% | 10% | 0% | 0% | 0% | 10% | 10% | 10% | pest or weed control at 31 g/ha [11]: 10%; pest or weed control at 125 g/ha [11]: 90%; plant injury at 31 g/ha [12]: 0%; plant injury at 125 g/ha [12]: 0%; Corn plant response rating (crop injury, 0 = no effect, 100 = complete kill) at 31 g/ha (corn (Zea mays)): 0%; Corn plant response rating (crop injury, 0 = no effect, 100 = complete kill) at 125 g/ha (corn (Zea mays)): 10%; pest or weed control at 31 g/ha [13]: 10%; pest or weed control at 125 g/ha [13]: 10%; pest or weed control at 31 g/ha [14]: 0%; pest or weed control at 125 g/ha [14]: 30%; plant injury at 250 g/ha (rice (Oryza sativa)): 40%; pest or weed control at 250 g/ha [15]: 60%; pest or weed control at 250 g/ha [16]: 0% |
